Experiments:
[1] = tested on: Inoculum of bacteria (activated sludge taken from domestic waste water treatment plant in Haifa); assay: Biocidal efficacy under different TOC loading; type: cell-based; settings: 30 min, pH 7
Procedure: Inoculum of bacteria (activated sludge taken from domestic waste water treatment plant in Haifa), R2A agar for general counting, and Tryptone were employed. The biocidal efficacy of the antifouling composition at different organic loads of 0, 10, 30 and 50 ppm TOC, was examined under different biocidal concentrations (5 and 10 ppm) at pH 7.
1) 1 ml of inoculum with the appropriate biocide concentration (5, 10 ppm) was added to tryptone solutions, 100 ml each, with different concentrations of TOC (0, 10, 30 and 50 ppm). […] The result stands for the bacteria count at zero time. 3) After 30 min. of shaking (100 rpm), 1 ml of each sample was transferred to a tube filled with 9 ml of the neutralization solution […].
An aliquot of 1 ml was taken from this solution and added to another tube containing 9 ml of buffer solution. The solution was mixed under vortex. This operation was repeated for 4 more times.
4) 1 ml from the two lowest dilutions was inoculated on a R2A agar (by the pour plate method). 5) After the plates were incubated at 25° C. for 5-7 days, the bacteria count was recorded.

[2] = tested on: Pseudomonas aeruginosa (ATCC 15442); assay: Biocidal activity against simulated biofilm system (alginate beads with entrapped bacteria); type: cell-based; settings: pH 8
Text: A biofilm simulation system, alginate beads, developed by the Biofilm Bozeman Institute Montana (Grobe, K. J, Zahller, J and Stewart P. S., 2002 in “Role of dose concentration in biocide efficacy against Pseudomonas aeruginosa Biofilms”, J. Industrial Microbiology & Biotechnology, vol. 29, pp 10-15), was used in order to evaluate the efficacy of the biocide solution against biofilm.
The biofilm simulation was created by entrapping bacteria in alginate gel beads. A plate of R2A agar was streaked with Pseudomonas aeruginosa (ATCC 15442) and incubated at 35° C. overnight. Buffer phosphate at pH 7.2 was used to scrap off the bacteria from the agar plate and to create a suspension. The bacterial suspension was mixed with an equal volume of an aqueous 4% sodium alginate solution, to make a final 2% alginate solution. The alginate and bacterial slurry were placed in a 50 ml syringe attached to a gauge needle, connected to a compressed air tank, allowing the syringe to be pressurized. At 20 psig pressure a stream of small drops was forced out and dropped into a stirred solution of 50 mM CaCl2. The Ca^+2 cross linked the alginate, and semi solid beads with entrapped bacterial cells were formed. The beads were allowed to stir in the CaCl2 solution for about 20 minutes, and then rinsed in a dilute 5 mM CaCl2 solution. Several flasks containing 100 beads each were incubated overnight at 35° C. on a rotating shaker in a buffer solution (at pH 8) with 5 mM addition of CaCl2 to maintain the beads structure. The resulting beads diameter was about 2 mm.
At the beginning of the experiment, the supernatant of the beads buffer suspension containing 5 mM CaCl2 was decanted and replaced by the 100 ml biocide solution with the required concentration (at pH 8). After different interval contact times, 10 beads were removed and placed in a 5 g/l sodium thiosulfate solution containing 50 mM sodium citrate. The sodium citrate was used to dissolve the alginate gel and release the bacteria into the solution. The neutralizer-citrate solution was placed in the refrigerator for 2 hours, than diluted and placed on R2A agar plates using pour plate technique. The plates were incubated at 35° C. for 24-48 hours and counted. The efficacy and toxicity of the neutralizer were checked as well as a control experiment without biocide addition. Four concentrations of active chlorine (0.5, 1, 2.5 and 5 ppm) were tested at four different contact times (5, 15, 30, and 60 min). Table 1-2 describe the surviving colony forming units (CFU) of the bacteria after different biocides treatment at different contact times.

## OCl [NaOCl, sodium hypochlorite]
[1]; biocide 5 ppm, TOC 0 ppm
  % kill: 96.9%
[1]; biocide 5 ppm, TOC 10 ppm
  % kill: 86.0%
[1]; biocide 5 ppm, TOC 30 ppm
  % kill: 30.6%
[1]; biocide 5 ppm, TOC 50 ppm
  % kill: 30.6%
[1]; biocide 10 ppm, TOC 0 ppm
  % kill: 99.9%
[1]; biocide 10 ppm, TOC 10 ppm
  % kill: 98.8%
[1]; biocide 10 ppm, TOC 30 ppm
  % kill: 95.4%
[1]; biocide 10 ppm, TOC 50 ppm
  % kill: 88.3%
[2]; biocide 0.5 ppm as Cl2, contact time 0 min
  survival of bacteria (CFU): 1.20E+07 CFU
[2]; biocide 0.5 ppm as Cl2, contact time 5 min
  survival of bacteria (CFU): 6.73E+06 CFU
[2]; biocide 0.5 ppm as Cl2, contact time 15 min
  survival of bacteria (CFU): 6.48E+06 CFU
[2]; biocide 0.5 ppm as Cl2, contact time 30 min
  survival of bacteria (CFU): 6.53E+06 CFU
[2]; biocide 0.5 ppm as Cl2, contact time 60 min
  survival of bacteria (CFU): 4.08E+06 CFU
[2]; biocide 1 ppm as Cl2, contact time 0 min
  survival of bacteria (CFU): 1.20E+07 CFU
[2]; biocide 1 ppm as Cl2, contact time 5 min
  survival of bacteria (CFU): 7.25E+06 CFU
[2]; biocide 1 ppm as Cl2, contact time 15 min
  survival of bacteria (CFU): 4.18E+06 CFU
[2]; biocide 1 ppm as Cl2, contact time 30 min
  survival of bacteria (CFU): 4.28E+06 CFU
[2]; biocide 1 ppm as Cl2, contact time 60 min
  survival of bacteria (CFU): 1.81E+06 CFU
[2]; biocide 2.5 ppm as Cl2, contact time 0 min
  survival of bacteria (CFU): 1.20E+07 CFU
[2]; biocide 2.5 ppm as Cl2, contact time 5 min
  survival of bacteria (CFU): 6.40E+06 CFU
[2]; biocide 2.5 ppm as Cl2, contact time 15 min
  survival of bacteria (CFU): 3.10E+06 CFU
[2]; biocide 2.5 ppm as Cl2, contact time 30 min
  survival of bacteria (CFU): 8.28E+05 CFU
[2]; biocide 2.5 ppm as Cl2, contact time 60 min
  survival of bacteria (CFU): 9.38E+04 CFU
[2]; biocide 5 ppm as Cl2, contact time 0 min
  survival of bacteria (CFU): 1.20E+07 CFU
[2]; biocide 5 ppm as Cl2, contact time 5 min
  survival of bacteria (CFU): 4.55E+06 CFU
[2]; biocide 5 ppm as Cl2, contact time 15 min
  survival of bacteria (CFU): 7.03E+05 CFU
[2]; biocide 5 ppm as Cl2, contact time 30 min
  survival of bacteria (CFU): 2.70E+03 CFU
[2]; biocide 5 ppm as Cl2, contact time 60 min
  survival of bacteria (CFU): 1.00 CFU

— patent US20150208661A1, “METHOD FOR PREPARING BROMINE BASED BIOCIDAL AQUEOUS COMPOSITIONS” (BROMINE COMPOUNDS LTD., priority 2012, published 2015)
